Tests used:
COX-2 = target: T1, COX-2 (Homo sapiens, UniProt P35354); assay: Cyclooxygenase COX-2 inhibition assay (Cayman COX inhibitor screening kit, EIA); details: for Selectivity indexes (SI): SI = IC50 COX-1/COX-2 ratios; for COX-2 inhibition, in words (SAR discussion): qualitative statement
T1 sequence (P35354 18-604): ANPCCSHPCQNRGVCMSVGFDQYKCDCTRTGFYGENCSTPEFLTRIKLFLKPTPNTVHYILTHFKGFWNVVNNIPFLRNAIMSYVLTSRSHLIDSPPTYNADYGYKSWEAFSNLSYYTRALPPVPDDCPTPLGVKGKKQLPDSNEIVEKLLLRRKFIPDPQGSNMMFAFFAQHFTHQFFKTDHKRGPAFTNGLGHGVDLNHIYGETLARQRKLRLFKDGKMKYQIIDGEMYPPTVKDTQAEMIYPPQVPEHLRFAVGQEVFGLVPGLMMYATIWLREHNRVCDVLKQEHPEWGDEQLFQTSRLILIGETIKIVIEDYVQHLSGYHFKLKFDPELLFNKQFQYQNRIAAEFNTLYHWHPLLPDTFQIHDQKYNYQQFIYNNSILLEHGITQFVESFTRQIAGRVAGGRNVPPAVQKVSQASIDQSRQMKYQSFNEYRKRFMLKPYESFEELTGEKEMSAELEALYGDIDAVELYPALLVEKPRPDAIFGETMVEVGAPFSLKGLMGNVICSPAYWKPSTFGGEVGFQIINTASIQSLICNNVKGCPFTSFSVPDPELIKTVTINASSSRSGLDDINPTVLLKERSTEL
Experimental: (§1) Tested compounds were dissolved in DMSO. […] The COX inhibitor screening assay depends on direct measurement of the amount of PG2α produced in the COX reaction. […] Enzyme catalysis was terminated by addition of 50 µl 1 M HCl and 100 µl of the saturated stannous chloride solution. The PGs are quantified by enzyme immunoassay (EIA) at 410 nm.
(§2) Thus, the newly synthesised compounds were tested for their anti-inflammatory activity against isozymes COX-1 and COX-2, which were determined by the COX-catalysed transformation of AA into PGH2 that was reduced to PGF2α and detected by the EIA[53], as shown in Table 1.

TNF-α = target: T2, TNF-α (Homo sapiens, UniProt P01375); assay: TNFR2: TNF-α [biotinylated] inhibitor screening assay; format: binding; details: for IC50: mean ± SD of three experiments
T2 construct: purchased BPS Bioscience 79756
Experimental: The assay was performed in triplicates using TNFR2: TNF-α [biotinylated] […] First, TNFR2 is coated on a 96-well plate. Next, biotinylated TNF-α is incubated with TNFR2 on the plate. Finally, the plate was treated with streptavidin-HRP followed by addition of an HRP substrate to produce chemiluminescence, which can be measured using a chemiluminescence reader.

COX-1 = target: T3, COX-1 (Ovis aries, UniProt P05979); assay: Cyclooxygenase COX-1 inhibition assay (Cayman COX inhibitor screening kit, EIA)
T3 sequence (P05979 25-600): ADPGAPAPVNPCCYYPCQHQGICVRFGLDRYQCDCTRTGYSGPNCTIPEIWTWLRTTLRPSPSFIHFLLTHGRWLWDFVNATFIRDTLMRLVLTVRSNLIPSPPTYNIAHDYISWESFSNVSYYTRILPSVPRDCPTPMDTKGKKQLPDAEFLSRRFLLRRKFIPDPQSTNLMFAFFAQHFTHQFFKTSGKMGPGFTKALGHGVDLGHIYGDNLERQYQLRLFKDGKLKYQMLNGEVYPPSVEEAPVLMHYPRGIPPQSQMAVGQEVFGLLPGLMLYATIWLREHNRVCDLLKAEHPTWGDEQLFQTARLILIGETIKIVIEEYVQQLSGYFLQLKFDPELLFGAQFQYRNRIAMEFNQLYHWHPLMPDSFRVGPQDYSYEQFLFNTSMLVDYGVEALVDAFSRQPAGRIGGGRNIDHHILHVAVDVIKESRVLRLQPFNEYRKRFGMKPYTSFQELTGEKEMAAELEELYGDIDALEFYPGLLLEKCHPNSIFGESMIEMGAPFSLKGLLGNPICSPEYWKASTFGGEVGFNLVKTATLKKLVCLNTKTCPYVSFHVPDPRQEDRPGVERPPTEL
Experimental: as §1, §2

15-LOX = target: T4, 15-LOX (Glycine max, UniProt P08170); assay: Lipoxygenase (15-LOX) inhibition assay (Cayman LOX inhibitor screening kit); format: biochemical, soybean; details: mean ± SD of three experiments
T4 construct: purchased Cayman Chemical 760700
T4 sequence (P08170 1-839): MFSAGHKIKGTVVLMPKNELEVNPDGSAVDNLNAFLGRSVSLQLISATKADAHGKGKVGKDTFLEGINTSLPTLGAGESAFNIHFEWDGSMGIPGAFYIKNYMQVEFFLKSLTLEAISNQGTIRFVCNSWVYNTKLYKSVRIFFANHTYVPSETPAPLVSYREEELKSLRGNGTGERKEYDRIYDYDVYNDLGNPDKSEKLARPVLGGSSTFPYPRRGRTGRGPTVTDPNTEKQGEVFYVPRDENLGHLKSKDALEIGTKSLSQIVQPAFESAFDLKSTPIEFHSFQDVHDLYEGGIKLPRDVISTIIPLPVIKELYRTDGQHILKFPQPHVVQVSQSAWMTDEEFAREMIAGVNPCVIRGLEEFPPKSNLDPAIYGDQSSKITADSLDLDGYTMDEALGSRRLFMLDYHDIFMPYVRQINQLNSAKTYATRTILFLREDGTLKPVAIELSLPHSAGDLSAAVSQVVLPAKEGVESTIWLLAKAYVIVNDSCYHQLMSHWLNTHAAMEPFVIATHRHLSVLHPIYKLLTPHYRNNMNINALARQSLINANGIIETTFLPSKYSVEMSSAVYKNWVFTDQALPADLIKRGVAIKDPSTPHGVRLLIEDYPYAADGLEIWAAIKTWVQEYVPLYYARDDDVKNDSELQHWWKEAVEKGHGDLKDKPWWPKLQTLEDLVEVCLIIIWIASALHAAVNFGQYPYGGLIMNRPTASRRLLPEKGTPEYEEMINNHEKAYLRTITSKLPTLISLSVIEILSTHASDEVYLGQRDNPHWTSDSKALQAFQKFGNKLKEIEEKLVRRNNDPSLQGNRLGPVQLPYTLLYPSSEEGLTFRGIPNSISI
Experimental: Briefly, in a 96-well plate, 10 µl of each test compound (dissolved in DMSO) or vehicle were pre-incubated with 90 µl of 15-LOX enzyme. The reaction was started by addition of 10 µl of substrate (AA) and the plate was shaken for at least 5 min. Then, 100 µl of chromogen supplied with the kit was added to each well to stop the enzymatic reaction and develop the colour. The absorbance was measured at 490 nm using microplate reader.
Therefore, the soybean LOX is most like the mammalian 15-LOX[59].

T2 sequence (P01375 77-233 limits assumed): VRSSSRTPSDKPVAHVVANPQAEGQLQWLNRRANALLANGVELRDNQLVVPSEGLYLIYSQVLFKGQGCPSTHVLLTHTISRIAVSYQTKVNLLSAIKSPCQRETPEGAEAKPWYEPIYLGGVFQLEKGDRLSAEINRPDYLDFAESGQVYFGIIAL

| SMILES | IC50 (COX-2) [nM] | Selectivity indexes (SI) (COX-2) | COX-2 inhibition, in words (SAR discussion) (COX-2) | IC50 (TNF-α) [nM] | melting point [°C] | IC50 (COX-1) [nM] | IC50 (15-LOX) [nM] | TNF-α inhibition, in words (discussion) (TNF-α; qualitative statement) |
| --- | --- | --- | --- | --- | --- | --- | --- | --- |
| NNC(=O)C(=Cc1ccccc1[N+](=O)[O-])CC(=O)c1ccc(Cl)c(Cl)c1 [Compound 6a, 4-(3,4-Dichlorophenyl)-2-(2-nitrobenzylidene)-4-oxo-butanehydrazide] | 90 | 107.44 | high activity | 5.87 ± 0.12 | 164 to 166 | 9670 ± 60 | 2830 ± 60 |  |
| NNC(=O)C(=Cc1cccc([N+](=O)[O-])c1)CC(=O)c1ccc(Cl)c(Cl)c1 [Compound 6b, 4-(3,4-Dichlorophenyl)-2-(3-nitrobenzylidene)-4-oxo-butanehydrazide] | 80 | 125.88 | high activity | 4.1 ± 0.1 | 160 to 162 | 10100 ± 150 | 2470 ± 60 |  |
| CN(C)c1ccc(C=C(CC(=O)c2ccc(Cl)c(Cl)c2)C(=O)NN)cc1 [Compound 6c, 4-(3,4-Dichlorophenyl)-2-(4-dimethylaminobenzylidene)-4-oxo-butanehydrazide] | 100 ± 10 | 88.30 |  | 6.17 ± 0.06 | 154 to 156 | 8830 ± 60 | 3170 ± 60 |  |
| O=C1NN(C(=O)c2ccccc2)C(c2ccc(Cl)c(Cl)c2)=CC1=Cc1ccccc1[N+](=O)[O-] [Compound 8a, 2-Benzoyl-5-(2-nitrobenzylidene)-3-(3,4-dichlorophenyl)-1H-pyridazin-6-one] | 70 | 153.86 |  | 3.83 ± 1.44 | 222 to 224 | 10800 ± 150 | 2330 ± 510 |  |
| O=C1NN(C(=O)c2ccccc2)C(c2ccc(Cl)c(Cl)c2)=CC1=Cc1cccc([N+](=O)[O-])c1 [Compound 8b, 2-Benzoyl-5-(3-nitrobenzylidene)-3-(3,4-dichlorophenyl)-1H-pyridazin-6-one] | 40 | 316.75 |  | 3.47 ± 0.06 | 150 to 152 | 12670 ± 120 | 2470 ± 60 |  |
| CN(C)c1ccc(C=C2C=C(c3ccc(Cl)c(Cl)c3)N(C(=O)c3ccccc3)NC2=O)cc1 [Compound 8c, 2-Benzoyl-5-(4-dimethylaminobenzylidene)-3-(3,4-dichlorophenyl)-1H-pyridazin-6-one] | 40 | 326.75 |  | 2.9 ± 0.1 | 229 to 231 | 13070 ± 120 | 3170 ± 60 | lowest IC50 value |

Continued, values first:

| IC50 (COX-2) [nM] | Selectivity indexes (SI) (COX-2) | COX-2 inhibition, in words (SAR discussion) (COX-2) | IC50 (TNF-α) [nM] | melting point [°C] | IC50 (COX-1) [nM] | IC50 (15-LOX) [nM] | TNF-α inhibition, in words (discussion) (TNF-α; qualitative statement) | SMILES |
| --- | --- | --- | --- | --- | --- | --- | --- | --- |
| 280 ± 10 | 33.68 |  | 5.57 ± 0.06 | 214 to 216 | 9430 ± 120 | 2070 ± 150 |  | O=C(CC(=Cc1ccccc1[N+](=O)[O-])c1n[nH]c(=S)o1)c1ccc(Cl)c(Cl)c1 [Compound 9a, 1-(3,4-Dichlorophenyl)-4-(2-nitrophenyl)-3-(2-thioxo-4,5-dihydro-1,3,4-oxadiazol-5-yl)but-3-en-1-one] |
| 220 ± 10 | 40.59 |  | 6.27 ± 0.15 | 162 to 164 | 8930 ± 60 | 2000 ± 170 |  | CN(C)c1ccc(C=C(CC(=O)c2ccc(Cl)c(Cl)c2)c2n[nH]c(=S)o2)cc1 [Compound 9c, 1-(3,4-Dichlorophenyl)-4-(4-dimethylaminophenyl)-3-(2-thioxo-4,5-dihydro-1,3,4-oxadiazol-5-yl)but-3-en-1-one] |
